{
  "source": "patent US12678451B2",
  "about": "“Cannabinoid and omega fatty acid compositions and methods of using” (GreenWay Herbal Products, LLC, priority 2019, dated 2026)",
  "key": {"[1]": {"conditions": "doses up to 600 mg in humans; cited from earlier work"}, "[2]": {"system": "differentiated U-937 cells", "experiment": "Human cellular U-937 autophagy induction assay (anti-LC3)", "format": "cell-based", "conditions": "1.0 μM, 12 hours", "method": "The induction of autophagy was monitored using anti-LC3 antibodies to detect LC3 on the autophagosome in human U-937 pro-monocytic histiocytic lymphoma cells (ATCC, Manassas, Va., USA), which generate morphologies characteristic of macrophages upon induction by various stimuli. U-937 cells were cultured in RPMI-1640 medium with L-glutamine and sodium bicarbonate (Sigma-Aldrich, St Louis, Mo.) supplemented with 10% fetal bovine serum (FBS) and 1% penicillin in 25 cm2 tissue flasks at 37° C. in a 5% CO2 humidified atmosphere and passaged every 2-3 days. U-937 cells were seeded in 96 well plates at 5×10^5 cells/mL and stimulated with 100 ng/mL PMA to induce differentiation for 24 hours. The cells were then treated with the various cannabinoids at 1.0 μM concentrations for 12 hours. 30 μM chloroquine was used as a positive control. After treatment, the cells were fixed using 3.7% formaldehyde in PBS for 15 minutes at room temperature and washed with PBS to remove the fixative. Permeabilization reagent (0.2% Triton X-100 in PBS) (Sigma-Aldrich) was added, the cells were incubated for 15 minutes at room temperature and then the cells were washed with PBS to remove the permeabilization reagent. LC3B rabbit polyclonal antibody (Invitrogen) was added at a final concentration of 0.5 μg/ml for 1 hour at room temperature and the cells were washed with PBS remove the primary antibody. Secondary conjugated goat anti-rabbit polyclonal antibody (Thermo Scientific) was then added at a final concentration of 2.0 μg/ml for 1 hour at room temperature. The cells were washed, Hoechst dye was added to stain the nucleus and the cells were imaged using an Arrayscan VTI high-content screening (HCS) reader (Thermo Scientific) with the appropriate filters and the data was analyzed using the vHCS Scan software.\nChloroquine at a concentration of 30 μM was included as a positive control. The ability to induce autophagy was determined as a percentage with respect to the untreated control."}, "[3]": {"system": "animal or human cells grown via tissue culture", "conditions": "cited from earlier work"}, "[4]": {"conditions": "doses up to 100 mg in mice; cited from earlier work"}, "[5]": {"system": "cytokines induced in mice by LPS", "experiment": "Mouse LPS cytokine animal model (Example 3), cannabinoids in PB with 5% DMSO", "format": "in vivo", "conditions": "5 mg/kg", "method": "This experiment was conducted to compare the ability of CBD, CBDA or the 1:1 equimolar mixture of CBD:CBDA to suppress the induction of cytokines whose expression levels were induced in mice by LPS.\nThe ability of agents to suppress the immune system can be tested in vivo using an LPS mouse model, in which mice are injected with LPS to cause an immune response (Field et al., 1970; Ghezzi P and Sipe J D, 1988).\nFour 20 g female C57BL/6 mice were used per group. The experimental mice were first injected with 0.1 mL of the cannabinoids prepared at 1 mg/mL in phosphate buffer (PB) with 5% DMSO to yield a final dose of 5 mg/kg, followed one hour later by the injection of 0.1 mL of 0.02 mg/mL LPS in PB to yield a final dose of 0.1 mg/kg. Mice injected with 0.1 mL of PB with 5% DMSO and 0.1 mL of PBS served as a non-induced control and mice injected with 0.1 mL of PB with 5% DMSO and 0.1 mL of 0.02 mg/mL LPS in PB served as a LPS untreated control. After allowing two hours for the immune system to be induced by LPS, the mice were then euthanized, heart punctures performed to extract the blood, which was allowed to coagulate on ice for 1 hour before centrifuging to isolate the serum. The levels of 32 of the most common mouse cytokines (Eve Technologies, Calgary, Canada, Table 9) were determined by multi-plex analysis."}, "[6]": {"experiment": "DPPH antioxidant assay", "format": "biochemical", "conditions": "100 μM", "method": "The ability of the cannabinoids to act as potential antioxidants was assessed using the 2,2-diphenyl-1-picrylhydrazyl (DPPH) antioxidant assay. The cannabinoids CBDA, CBD, CBDVA, CBDV, CBG, THCV, and the 1:1 CBD:CBDA mixture had the highest antioxidant activities with radical scavenging activities of 38.19%, 48.00%, 43.81%, 44.21%, 44.28%, 45.71%, and 43.74%, respectively.\nThe 2,2-diphenyl-1-picrylhydrazyl (DPPH) free radical (Alfa Aesar) was prepared at 0.1 mM in ethanol. The cannabinoids were tested at a final concentration of 100 uM. 2 uL of 7.5 mM stock solutions of the cannabinoids to be tested in DMSO were added to 148 uL of 0.1 mM DPPH to achieve a final concentration of 100 μM in the assay. Ascorbic acid (Thermo Scientific) at a final concentration of 10 mg/ml was used as a positive control. The reaction mixture was incubated in the dark at room temperature for 1 hour, the absorbance of the mixture was read at 517 nm using a Spectra Max 5M microplate reader (Molecular Devices, LLC, Sunnyvale, Calif., USA) and the absorbance was converted to percent radical scavenging activity (% RSA) using the following formula: % RSA=[(Absorbance of the control−Absorbance of the sample)/(Absorbance of the control)]×100.\nFree radical production occurs when the immune system is activated and antioxidants represent potential effective treatments for inflammatory conditions and autoimmune diseases. […] The DPPH antioxidant assay can be used to measure the ability of a compound to scavenge free radicals by measuring the ability of compounds to hydrogenate and reduce DPPH. The DPPH assay was conducted on CBCA, CBDA, CBDVA, CBGA, CBLA, CBNA, THCVA, and their decarboxylated derivatives as well as the 1:1 CBD:CBDA mixture."}, "[7]": {"system": "cytokine levels in differentiated THP-1 cells treated with LPS", "experiment": "THP-1 human cellular LPS cytokine assay, four independent experiments, per cytokine", "format": "cell-based", "conditions": "2 µM; LPS 20 ng/mL"}, "[8]": {"system": "cytokine levels in differentiated THP-1 cells treated with LPS", "experiment": "THP-1 human cellular LPS cytokine assay, three independent experiments, total averaged suppression"}},
  "note": "Read-outs that look alike come from different tables or passages of the source.",
  "data": [
    {"smiles": "C=C(C)[C@@H]1CCC(C)=C[C@H]1c1c(O)cc(CCCCC)cc1O", "note": "[CBD, 2-[(1R,6R)-6-Isopropenyl-3-methyl-2-cyclohexen-1-yl]-5-pentyl-1,3-benzenediol]", "values": [
      {"measurement": "adverse side effects", "setting": "[1]", "result": "no adverse side effects"},
      {"measurement": "Fluorescence (LC3)", "setting": "[2]", "result": 45.43},
      {"measurement": "activation at 1 µM", "setting": "[2]; Homo sapiens, U-937, read-out: Induction of autophagy with respect to the untreated control", "result": -5.84, "unit": "%"},
      {"measurement": "dose that can cause significant cytotoxicity", "setting": "[3]", "result": "less than 5 μM"},
      {"measurement": "adverse side effects", "setting": "[4]", "result": "no adverse side effects"},
      {"measurement": "Average cytokine suppression", "setting": "[5]", "result": 12.86, "unit": "%"},
      {"measurement": "GM-CSF suppression", "setting": "[5]", "result": 34.53, "unit": "%"},
      {"measurement": "IFNγ suppression", "setting": "[5]", "result": "−0.19", "unit": "%"},
      {"measurement": "IL-1β suppression", "setting": "[5]", "result": 10.58, "unit": "%"},
      {"measurement": "IL-2 suppression", "setting": "[5]", "result": "−0.09", "unit": "%"},
      {"measurement": "IL-6 suppression", "setting": "[5]", "result": 4.49, "unit": "%"},
      {"measurement": "IL-12β p40 suppression", "setting": "[5]", "result": 34.89, "unit": "%"},
      {"measurement": "IL-13 suppression", "setting": "[5]", "result": 6.38, "unit": "%"},
      {"measurement": "IL-17 suppression", "setting": "[5]", "result": 7.51, "unit": "%"},
      {"measurement": "IP-10 suppression", "setting": "[5]", "result": 1.72, "unit": "%"},
      {"measurement": "KC suppression", "setting": "[5]", "result": 7.85, "unit": "%"},
      {"measurement": "LIF suppression", "setting": "[5]", "result": 25.24, "unit": "%"},
      {"measurement": "M-CSF suppression", "setting": "[5]", "result": 7.70, "unit": "%"},
      {"measurement": "MIP-1α suppression", "setting": "[5]", "result": 6.69, "unit": "%"},
      {"measurement": "MIP-1β suppression", "setting": "[5]", "result": "−0.77", "unit": "%"},
      {"measurement": "MIP-2 suppression", "setting": "[5]", "result": 34.56, "unit": "%"},
      {"measurement": "TNF-α suppression", "setting": "[5]", "result": 24.74, "unit": "%"},
      {"measurement": "radical scavenging activity compared to the untreated control", "setting": "[6]", "result": "at least two-fold"},
      {"measurement": "% RSA (radical scavenging activity)", "setting": "[6]; 1 hour", "result": 48.00, "unit": "%"},
      {"measurement": "Average cytokine suppression", "setting": "[7]", "result": 39.62, "unit": "%"},
      {"measurement": "EGF suppression", "setting": "[7]", "result": "−5.61", "unit": "%"},
      {"measurement": "FGF-β suppression", "setting": "[7]", "result": 41.85, "unit": "%"},
      {"measurement": "Flt-3L suppression", "setting": "[7]", "result": 60.02, "unit": "%"},
      {"measurement": "G-CSF suppression", "setting": "[7]", "result": 51.32, "unit": "%"},
      {"measurement": "GM-CSF suppression", "setting": "[7]", "result": 45.16, "unit": "%"},
      {"measurement": "IFNγ suppression", "setting": "[7]", "result": 13.71, "unit": "%"},
      {"measurement": "IL-1α suppression", "setting": "[7]", "result": 55.14, "unit": "%"},
      {"measurement": "IL-1β suppression", "setting": "[7]", "result": 71.06, "unit": "%"},
      {"measurement": "IL-4 suppression", "setting": "[7]", "result": 14.63, "unit": "%"},
      {"measurement": "IL-6 suppression", "setting": "[7]", "result": 66.26, "unit": "%"},
      {"measurement": "IL-7 suppression", "setting": "[7]", "result": 18.2, "unit": "%"},
      {"measurement": "IL-10 suppression", "setting": "[7]", "result": 32.42, "unit": "%"},
      {"measurement": "IL-12 p70 suppression", "setting": "[7]", "result": "−31.17", "unit": "%"},
      {"measurement": "IL-15 suppression", "setting": "[7]", "result": 62.30, "unit": "%"},
      {"measurement": "IL-18 suppression", "setting": "[7]", "result": 56.90, "unit": "%"},
      {"measurement": "IP-10 suppression", "setting": "[7]", "result": 67.08, "unit": "%"},
      {"measurement": "MCP-1 suppression", "setting": "[7]", "result": 43.90, "unit": "%"},
      {"measurement": "MIP-1β suppression", "setting": "[7]", "result": 31.85, "unit": "%"},
      {"measurement": "TNFα suppression", "setting": "[7]", "result": 29.05, "unit": "%"},
      {"measurement": "TNFβ suppression", "setting": "[7]", "result": 68.24, "unit": "%"},
      {"measurement": "effectiveness at reducing elevated cytokine levels relative to dexamethasone", "setting": "[8]", "result": "at least half as effective as dexamethasone"},
      {"measurement": "inhibition at 2 µM", "setting": "[8]; Homo sapiens, THP-1, 4 h, read-out: % Cytokine Suppression (total averaged)", "result": 33.1, "unit": "%"}
    ]}
  ]
}
